Results from US20100086931A1, “METHOD FOR ASSAYING ACTION OF ANTITUMOR AGENT USING DECREASE IN GENE EXPRESSION LEVEL AS INDEX” (Eisai R&D Management Co., Ltd., priority 2007, published 2010).

Tested on: peripheral blood mononuclear cells (PBMC)
Test: Microarray analysis (Human Genome U133 plus 2.0 array) of mRNA expression in PBMC treated with compound A
Type: cell-based
Settings: 10 nM, ratio to control
Description: Since it is not easy to obtain a cancer tissue clinically, the measurement of the marker in hemocytes readily obtainable in peripheral blood would be more useful. Specifically blood was taken from a normal individual (volunteer) and peripheral blood mononuclear cells were purified and treated with compound A, followed by measurement of change in expression of the gene (mRNA) with the microarray (Human Genome […] plus 2.0 array: Affymetrix).
Ficoll-Paque PLUS solution (Amersham, 17-1440-02) was slowly added to the blood taken (with heparin added) from a healthy individual to form a layer underneath the blood (15 ml of Ficoll-Paque PLUS solution was added to 25 ml of blood). After the mixture was centrifuged at 1500 rpm for 30 min, the upper part containing platelets was removed and then a layer containing mononuclear cells was transferred to another tube. The cells were suspended in PBS and centrifuged at 1500 rpm for 5 min, followed by removal of the supernatant. After these steps were repeated twice, the cells were again suspended in RPMI1640 (containing 10% FBS). The number of the cells was then counted.
The cells were suspended in the medium to 5×10^6 cells/ml and plated 1 ml per well of a 24-well plate. Immediately, 111 μl of compound A (ten times more concentrated than the final concentrations) was added to the well (four wells per each concentration tested). The cells were then cultured in an incubator with 5% carbon dioxide gas at 37° C. Two or four hours later, the supernatant was collected and centrifuged at 1500 rpm for five minutes. TRI reagent (SIGMA) (1 ml) was added to each well of the plate from which the supernatant was removed to harvest the cells, which was added to the centrifuged pellet to dissolve. RNA was purified in accordance with the protocol of TRI reagent. RNA was further purified using RNeasy (QIAGEN). Absorbance at 260 nm was measured to quantify an amount of RNA.
A .cel file for each sample was obtained by using GeneChip Operating Software Ver.1.2 (Affymetrix). The RMA method was applied to ten of the .cel files obtained in the microarray experiment. Log signal intensity at a gene level was obtained by normalization of that at a probe level. By subtracting a control value from log signal intensity for each case, the log signal intensity was converted into a log signal ratio to the control. Genes were narrowed down in the basis of a log signal ratio, and a signal value. Specifically, among genes showing that the P value was 5% or less; the expression level in the untreated (control) is 100 or more by signal value; and the expression level when treated with 10 nM of compound A both for two and four hours decreased by 50% or more, genes of which expression level decreased to 25% or less upon the two-hour treatment were picked out. The software used is R2.2.1 (http://www.r-project.org/), affy package 1.8.1 (http://www.bioconductor.org).
Among genes showing, upon the treatment with compound A, that the P value was 5% or less; the expression level in the untreated (control) is 100 or more by signal value; and the expression level when treated with 10 nM of compound A both for two and four hours decreased by 50% or more, genes of which expression level decreased to 25% or less upon the two-hour treatment, and results thereof were shown in Table 2. For each gene evaluated, gene name (Gene Name), abbreviated name (Gene Symbol), accession number (Accession), alias name (Synonym), Probe set number in Human Genome U133 Plus 2.0 Array (Human Genome U133 Plus 2.0 Array Probeset ID), the expression level upon the two-hour treatment with E7107 (E7107 (2 h)), and the expression level upon the four-hour treatment with E7107 (E7107 (4 h)) were respectively shown in Table 2.

With CCC(O)C(C)C1OC1CC(C)(O)/C=C/C=C(\C)C1OC(=O)CC(O)CCC(C)(O)C(OC(=O)N2CCN(C3CCCCCC3)CC2)/C=C/C1C (stereo not drawn) [E7107, (8E,12E,14E)-7-((4-Cycloheptylpiperazin-1-yl)carbonyl)oxy-3,6,16,21-tetrahydroxy-6,10,12,16,20-pentamethyl-18,19-epoxytricosa-8,12,14-trien-11-olide] the “AHSA2 mRNA expression level (226665_at)” value (2 h) was 0.21, the “ATXN1 mRNA expression level (242230_at)” value (2 h) was 0.25 and the “C13orf31 mRNA expression level (228937_at)” value (2 h) was 0.19. The “C15orf48 mRNA expression level (223484_at)” value (2 h) was 0.06, the “CCRL2//LOC642312 mRNA expression level (211434_s_at)” value (2 h) was 0.22 and the “CLEC5A mRNA expression level (219890_at)” value (2 h) was 0.08. The “CSF2RA mRNA expression level (210340_s_at)” value (2 h) was 0.10, the “CTSL1 mRNA expression level (202087_s_at)” value (2 h) was 0.21 and the “DHRS9 mRNA expression level (223952_x_at)” value (2 h) was 0.25. For the same compound, the “DOK3 mRNA expression level (223553_s_at)” value (2 h) was 0.23, the “FPRL2 mRNA expression level (230422_at)” value (2 h) was 0.06 and the “GNA15 mRNA expression level (205349_at)” value (2 h) was 0.22. For the same compound, the “GPR84 mRNA expression level (223767_at)” value (2 h) was 0.18, the “GTF2H1 mRNA expression level (202451_at)” value (2 h) was 0.18 and the “HNRPA2B1 mRNA expression level (225107_at)” value (2 h) was 0.23. The “HPSE mRNA expression level (222881_at)” value (2 h) was 0.18, the “IQCG mRNA expression level (235347_at)” value (2 h) was 0.24 and the “LOC51315 mRNA expression level (233329_s_at)” value (2 h) was 0.21. For the same compound, the “MS4A7 mRNA expression level (224358_s_at)” value (2 h) was 0.24, the “NLRP12 mRNA expression level (1554952_s_at)” value (2 h) was 0.23 and the “NRIP3 mRNA expression level (219557_s_at)” value (2 h) was 0.07. The “NSMCE4A mRNA expression level (228506_at)” value (2 h) was 0.24, the “OLR1 mRNA expression level (210004_at)” value (2 h) was 0.05 and the “RAPH1 mRNA expression level (225188_at)” value (2 h) was 0.19. For the same compound, the “RBBP6 mRNA expression level (212781_at)” value (2 h) was 0.23, the “SLC25A19 mRNA expression level (223222_at)” value (2 h) was 0.18 and the “SLC43A2 mRNA expression level (228918_at)” value (2 h) was 0.17. For the same compound, the “TNFAIP6 mRNA expression level (206026_s_at)” value (2 h) was 0.19, the “TNS1 mRNA expression level (221748_s_at)” value (2 h) was 0.10 and the “TRAPPC4 mRNA expression level (217959_s_at)” value (2 h) was 0.18. The “Transcribed locus mRNA expression level (230098_at)” value (2 h) was 0.22, the “WSB1 mRNA expression level (201294_s_at)” value (2 h) was 0.20 and the “ZCCHC6 mRNA expression level (220933_s_at)” value (2 h) was 0.17. For the same compound, the “AHSA2 mRNA expression level (226665_at)” value (4 h) was 0.15, the “ATXN1 mRNA expression level (242230_at)” value (4 h) was 0.24 and the “C13orf31 mRNA expression level (228937_at)” value (4 h) was 0.11. For the same compound, the “C15orf48 mRNA expression level (223484_at)” value (4 h) was 0.01, the “CCRL2//LOC642312 mRNA expression level (211434_s_at)” value (4 h) was 0.35 and the “CLEC5A mRNA expression level (219890_at)” value (4 h) was 0.05. For the same compound, the “CSF2RA mRNA expression level (210340_s_at)” value (4 h) was 0.06, the “CTSL1 mRNA expression level (202087_s_at)” value (4 h) was 0.13 and the “DHRS9 mRNA expression level (223952_x_at)” value (4 h) was 0.31. For the same compound, the “DOK3 mRNA expression level (223553_s_at)” value (4 h) was 0.26, the “FPRL2 mRNA expression level (230422_at)” value (4 h) was 0.04 and the “GNA15 mRNA expression level (205349_at)” value (4 h) was 0.15. For the same compound, the “GPR84 mRNA expression level (223767_at)” value (4 h) was 0.20, the “GTF2H1 mRNA expression level (202451_at)” value (4 h) was 0.07 and the “HNRPA2B1 mRNA expression level (225107_at)” value (4 h) was 0.20. The “HPSE mRNA expression level (222881_at)” value (4 h) was 0.29, the “IQCG mRNA expression level (235347_at)” value (4 h) was 0.23 and the “LOC51315 mRNA expression level (233329_s_at)” value (4 h) was 0.13. For the same compound, the “MS4A7 mRNA expression level (224358_s_at)” value (4 h) was 0.04, the “NLRP12 mRNA expression level (1554952_s_at)” value (4 h) was 0.26 and the “NRIP3 mRNA expression level (219557_s_at)” value (4 h) was 0.29. The “NSMCE4A mRNA expression level (228506_at)” value (4 h) was 0.18, the “OLR1 mRNA expression level (210004_at)” value (4 h) was 0.02 and the “RAPH1 mRNA expression level (225188_at)” value (4 h) was 0.18. The “RBBP6 mRNA expression level (212781_at)” value (4 h) was 0.17, the “SLC25A19 mRNA expression level (223222_at)” value (4 h) was 0.20 and the “SLC43A2 mRNA expression level (228918_at)” value (4 h) was 0.08. For the same compound, the “TNFAIP6 mRNA expression level (206026_s_at)” value (4 h) was 0.06, the “TNS1 mRNA expression level (221748_s_at)” value (4 h) was 0.09 and the “TRAPPC4 mRNA expression level (217959_s_at)” value (4 h) was 0.07. For the same compound, the “Transcribed locus mRNA expression level (230098_at)” value (4 h) was 0.14, the “WSB1 mRNA expression level (201294_s_at)” value (4 h) was 0.17 and the “ZCCHC6 mRNA expression level (220933_s_at)” value (4 h) was 0.08.
